Experimental data as given in US20110263507A1 (priority 2007, published 2011).
Read-outs that look alike come from different tables or passages of the source. Where a SMILES comes first, the peptide text is derived from it. Where no end group is shown, it is not given here. [ ]: non-standard residue; d: D form. Ala(indol-4-yl) = N[C@@H](Cc1cccc2[nH]ccc12)C(=O)O; 1Nal = N[C@@H](Cc1cccc2ccccc12)C(=O)O; NMeR = CN[C@@H](CCCNC(=N)N)C(=O)O; pGlu = O=C1CC[C@@H](C(=O)O)N1; Tle = CC(C)(C)[C@H](N)C(=O)O; dOrn = NCCC[C@@H](N)C(=O)O; Orn = NCCC[C@H](N)C(=O)O; Dab = NCC[C@H](N)C(=O)O

Key:
hNTS1 = molecular target: T1, hNTS1 (Homo sapiens, UniProt P30989); assay: Radioligand competition binding with [3H]NT, membranes of CHO-K1 cells expressing hNTS1; conditions: for hNTS1 Selectivity: hNTS1 over hNTS2
T1 construct: expressed in transfected cells; host or cells: CHO-K1
Method: CHO-K1 cells that had been stably transfected separately with the hNTS1 or hNTS2 genes were cultured in 150 mm (500 cm^2) Petri plates with 35 ml of Dulbecco's modified Eagle's medium containing 100 μM minimal essential medium nonessential amino acids (Life Technologies, Inc.) supplemented with 5% (v/v) FetalClone II bovine serum product (Hyclone Labs, Logan, Utah). […] The cellular pellet (in Tris-HCl buffer) was stored at […] until the radioligand binding was performed.
For use in binding assays, crude membrane preparations were prepared by centrifugation of the cellular pellet at 35,600×g for 10 min. The supernatant was decanted and discarded, and the cellular pellet was resuspended in 1 ml of Tris-HCl buffer followed by homogenization with a Brinkmann Polytron at setting 5.5 for 15 s. Centrifugation was repeated as above, the supernatant was decanted and discarded, and the cellular pellet was resuspended in 1 ml of Tris-HCl buffer followed by homogenization. Centrifugation was repeated a third time, the supernatant was discarded, and the final cellular pellet was suspended in 0.5-2.5 ml of Tris-HCl buffer. Protein concentration of the membrane preparation was estimated by the method of Lowry et al. using bovine serum albumin as a standard.
Incubation was at 20° C. for 40 min. The assay was routinely terminated by addition of ice-cold 0.9% NaCl (5×1.5 ml), followed by rapid filtration through a GF/B filter strip that had been pretreated with 0.2% or 2% polyethyleneimine. Details of binding assays have been described previously. […] Data were analyzed using the LIGAND program.

hNTS2 = molecular target: T2, hNTS2 (Homo sapiens, UniProt O95665); assay: Radioligand competition binding with [3H]NT, membranes of CHO-K1 cells expressing hNTS2
T2 construct: expressed in transfected cells; host or cells: CHO-K1

[1] = read-out: hNTS1 Geometric Mean ∀ SEM (equilibrium dissociation constant Kd)
[2] = Table 2, read-out: hNTS2 Geometric Mean ∀ SEM (equilibrium dissociation constant Kd)

T1 sequence (P30989 whole entry): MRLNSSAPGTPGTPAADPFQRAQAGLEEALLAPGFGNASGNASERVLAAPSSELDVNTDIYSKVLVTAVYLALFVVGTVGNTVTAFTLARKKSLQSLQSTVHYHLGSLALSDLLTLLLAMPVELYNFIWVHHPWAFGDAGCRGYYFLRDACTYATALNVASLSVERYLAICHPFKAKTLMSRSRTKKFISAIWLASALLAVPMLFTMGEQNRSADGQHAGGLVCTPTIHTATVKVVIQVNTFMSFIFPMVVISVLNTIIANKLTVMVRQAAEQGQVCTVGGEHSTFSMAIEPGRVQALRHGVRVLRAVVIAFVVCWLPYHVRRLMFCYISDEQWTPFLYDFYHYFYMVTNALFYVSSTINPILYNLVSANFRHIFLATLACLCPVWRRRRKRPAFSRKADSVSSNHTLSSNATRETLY
T2 sequence (O95665 whole entry): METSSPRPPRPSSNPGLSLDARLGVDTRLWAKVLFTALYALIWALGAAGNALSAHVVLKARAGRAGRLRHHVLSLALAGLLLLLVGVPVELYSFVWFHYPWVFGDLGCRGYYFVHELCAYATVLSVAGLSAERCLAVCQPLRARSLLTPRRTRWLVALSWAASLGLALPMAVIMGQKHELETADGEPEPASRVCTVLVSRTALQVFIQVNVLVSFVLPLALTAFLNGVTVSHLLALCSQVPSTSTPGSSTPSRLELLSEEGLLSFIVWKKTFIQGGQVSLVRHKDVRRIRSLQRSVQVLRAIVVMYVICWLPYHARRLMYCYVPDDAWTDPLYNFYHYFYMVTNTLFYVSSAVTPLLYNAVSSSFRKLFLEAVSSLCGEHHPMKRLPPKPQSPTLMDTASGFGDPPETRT

| Compound | hNTS1 Selectivity (hNTS1; Table 2) | Kd (hNTS1; [1]) | hNTS2 Selectivity (hNTS2; Table 2, hNTS2 over hNTS1) | Kd (hNTS2; [2]) | further results |
| --- | --- | --- | --- | --- | --- |
| CC(C)C[C@H](NC(=O)[C@@H](NC(=O)[C@H](Cc1cccc2[nH]ccc12)NC(=O)[C@@H]1CCCN1C(=O)[C@@H](CCCN)NC(=O)[C@@H](N)CCCNC(=N)N)C(C)(C)C)C(=O)O [NT77, [D-Orn^9,L-neo-Trp^11,tert-Leu^12]NT(8-13)] (H-R[dOrn]P[Ala(indol-4-yl)][Tle]L-OH; N-terminus and C-terminus assumed) | 0.3 | 1500 ± 100 nM | 3.3 | 460 ± 70 nM | hNTS2 Selectivity (hNTS2; Table 4): 3.3 |
| CN[C@@H](CCCNC(=N)N)C(=O)N[C@H](CCCN)C(=O)N1CCC[C@H]1C(=O)N[C@@H](Cc1cccc2[nH]ccc12)C(=O)N[C@H](C(=O)N[C@@H](CC(C)C)C(=O)O)C(C)(C)C [NT78, [N-methyl-Arg^8,D-Orn^9,L-neo-Trp^11,tert-Leu^12]NT(8-13)] (H-[NMeR][dOrn]P[Ala(indol-4-yl)][Tle]L-OH; C-terminus assumed) | 0.3 | 1300 ± 400 nM | 3.4 | 380 ± 40 nM |  |
| CC[C@H](C)[C@H](NC(=O)[C@@H](Cc1ccc(O)cc1)NC(=O)[C@@H]1CCCN1C(=O)[C@H](CCCN)NC(=O)[C@@H](N)CCCNC(=N)N)C(=O)N[C@@H](CC(C)C)C(=O)O [NT36, [L-Orn^9,D-Tyr^11]NT(8-13)] (H-R[Orn]P[dY]IL-OH; N-terminus and C-terminus assumed) |  |  |  | 1160 ± 20 nM | binding / Kd at hNTS1 in words (hNTS1; text b54): no detectable binding; Kd at hNTS2 in words (hNTS2; text b54): micromolar Kd's |
| CC[C@H](C)[C@H](NC(=O)[C@H](Cc1ccc(O)cc1)NC(=O)[C@@H]1CCCN1C(=O)[C@H](N)CCCN)C(=O)N[C@@H](CC(C)C)C(=O)O [NT35, [D-Orn^9]NT(9-13)] (H-[dOrn]PYIL-OH; N-terminus and C-terminus assumed) | 19.1 |  | 0.1 |  | Kd (hNTS1; text, read-out: Kd at hNTS1): 550 nM; Kd (hNTS2; text b54, read-out: Kd at hNTS2): 10000 nM; Kd (hNTS2; text, read-out: Kd at hNTS2): 10500 nM |
| RRPAIL [NT08, [Ala^11]NT(8-13)] | 0.02 |  | 43 |  | NTS2 Selectivity (hNTS2; Table 3): 43; hNTS2 Selectivity (hNTS2; Table 4): 43 |
| CC[C@H](C)[C@H](NC(=O)[C@H](Cc1ccc(O)cc1)NC(=O)[C@@H]1CCCN1C(=O)[C@H](CCCCN)NC(=O)[C@H](N)CCCNC(=N)N)C(=O)N[C@@H](CC(C)C)C(=O)O [NT15, [D-Arg^8,L-Lys^9]NT(8-13)] (H-[dR]KPYIL-OH; N-terminus and C-terminus assumed) | 4.0 |  | 0.2 |  | Kd (hNTS1): 3.5 ± 0.5 nM; Kd (hNTS2): 18 ± 2 nM |
| CC[C@H](C)[C@H](NC(=O)[C@H](Cc1ccc(O)cc1)NC(=O)[C@@H]1CCCN1C(=O)[C@@H](CCCN)NC(=O)[C@@H](N)CCCN)C(=O)N[C@@H](CC(C)C)C(=O)O [NT26, [L-Orn^8,D-Orn^9]NT(8-13)] | 3.0 | 360 ± 40 nM | 0.3 | 1082 ± 6 nM |  |
| RRGYIL [NT07, [Gly^10]NT(8-13)] | 0.7 |  | 1.4 |  | Kd (hNTS1): 1380 ± 50 nM; Kd (hNTS2): 970 ± 40 nM |

Further lines, with some results ahead:

| hNTS1 Selectivity (hNTS1; Table 2) | Kd (hNTS1; [1]) | hNTS2 Selectivity (hNTS2; Table 2, hNTS2 over hNTS1) | Kd (hNTS2; [2]) | Compound | further results |
| --- | --- | --- | --- | --- | --- |
| 5.2 | 0.41 ± 0.03 nM | 0.2 | 2.2 ± 0.1 nM | CC[C@H](C)[C@H](NC(=O)[C@H](Cc1ccc(O)cc1)NC(=O)[C@@H]1CCCN1C(=O)[C@H](CCCNC(=N)N)NC(=O)[C@@H](N)CCCN)C(=O)N[C@@H](CC(C)C)C(=O)O [NT21, [L-Orn^8]NT(8-13)] (H-[Orn]RPYIL-OH; N-terminus and C-terminus assumed) |  |
| 4.6 |  | 0.2 | 4.6 ± 0.5 nM | CC[C@H](C)[C@H](NC(=O)[C@H](Cc1ccc(O)cc1)NC(=O)[C@@H]1CCCN1C(=O)[C@H](CCCNC(=N)N)NC(=O)[C@H](N)CCCCN)C(=O)N[C@@H](CC(C)C)C(=O)O [NT02, [D-Lys^8]NT(8-13)] (H-[dK]RPYIL-OH; N-terminus and C-terminus assumed) |  |
| 0.1 | 140 ± 19 nM | 7.7 | 18.1 ± 0.7 nM | CC(C)C[C@H](NC(=O)[C@@H](NC(=O)[C@H](Cc1c[nH]c2ccccc12)NC(=O)[C@@H]1CCCN1C(=O)[C@H](CCCNC(=N)N)NC(=O)[C@H](N)CCCCN)C(C)(C)C)C(=O)O [NT66T, [D-Lys^8,L-Trp^11,tert-Leu^12]NT(8-13)] (H-[dK]RPW[Tle]L-OH; N-terminus and C-terminus assumed) |  |
| 4.0 | 0.25 ± 0.02 nM | 0.2 | 1.2 ± 0.2 nM | KRPYIL [NT17, [L-Lys^8]NT(8-13)] |  |
| 1.6 | 0.94 ± 0.06 nM | 0.6 | 1.5 ± 0.1 nM | CC[C@H](C)[C@H](NC(=O)[C@H](Cc1ccc(O)cc1)NC(=O)[C@@H]1CCCN1C(=O)[C@H](CCCN)NC(=O)[C@@H](N)CCCNC(=N)N)C(=O)N[C@@H](CC(C)C)C(=O)O [NT23, [L-Orn^9]NT(8-13)] (H-R[Orn]PYIL-OH; N-terminus and C-terminus assumed) |  |
| 0.7 | 1.71 ± 0.06 nM | 1.5 | 1.11 ± 0.03 nM | CN[C@@H](CCCNC(=N)N)C(=O)N[C@@H](CCN)C(=O)N1CCC[C@H]1C(=O)N[C@@H](Cc1cccc2[nH]ccc12)C(=O)N[C@H](C(=O)N[C@@H](CC(C)C)C(=O)O)C(C)(C)C [NT71, [N-methyl-Arg^8,DAB^9,L-neo-Trp^11,tert-leu^12]NT(8-13)] (H-[NMeR][Dab]P[Ala(indol-4-yl)][Tle]L-OH; N-terminus and C-terminus assumed) |  |
| 2.3 |  | 0.4 | 169 ± 8 nM | [DAB^9,L-neo-Trp^11]NT(9-13) [NT75] | Kd (hNTS1; Table 2, n.d. = no detectable binding at 1 μM, †/* values published before by the same laboratory, read-out: hNTS1 Geometric Mean ∀ SEM (equilibrium dissociation constant Kd)): 73 ± 5 nM |
| 9.1 | 2.1 ± 0.3 nM | 0.1 | 19.5 ± 0.7 nM | CC[C@H](C)[C@H](NC(=O)[C@H](Cc1ccc(O)cc1)NC(=O)[C@@H]1CCCN1C(=O)[C@H](CCN)NC(=O)[C@@H](N)CCN)C(=O)N[C@@H](CC(C)C)C(=O)O [NT31, [DAB^8,DAB^9]NT(8-13)] (H-[Dab][Dab]PYIL-OH; N-terminus and C-terminus assumed) |  |
| 0.5 | 17 ± 2 nM | 2.2 | 8 ± 0.4 nM | CC[C@H](C)[C@H](NC(=O)[C@H](Cc1c[nH]c2ccccc12)NC(=O)[C@@H]1CCCN1C(=O)[C@H](CCCNC(=N)N)NC(=O)[C@H](N)CCCCN)C(=O)N[C@@H](CC(C)C)C(=O)O [NT67T, [D-Lys^8,L-Trp^11]NT(8-13)] (H-[dK]RPWIL-OH; N-terminus and C-terminus assumed) |  |
| 5.4 | 3.2 ± 0.1 nM | 0.2 | 17 ± 2 nM | CC[C@H](C)[C@H](NC(=O)[C@H](Cc1ccc(O)cc1)NC(=O)[C@@H]1CCCN1C(=O)[C@H](CCCN)NC(=O)[C@H](CCCNC(=N)N)NC(=O)[C@@H]1CCCN1C(=O)[C@H](CCCCN)NC(=O)[C@H](CC(N)=O)NC(=O)[C@H](CCC(=O)O)NC(=O)[C@H](Cc1ccc(O)cc1)NC(=O)[C@H](CC(C)C)NC(=O)[C@@H]1CCC(=O)N1)C(=O)N[C@@H](CC(C)C)C(=O)O [NT60, [L-Orn^9]NT(1-13)] ([pGlu]LYENKPR[Orn]PYIL-OH; C-terminus assumed) |  |
| 1.7 | 8.4 ± 0.3 nM | 0.6 | 14.2 ± 0.5 nM | CC[C@H](C)[C@H](NC(=O)[C@H](Cc1cccc2ccccc12)NC(=O)[C@@H]1CCCN1C(=O)[C@H](CCCNC(=N)N)NC(=O)[C@H](CCCNC(=N)N)NC(=O)[C@@H]1CCCN1C(=O)[C@H](CCCCN)NC(=O)[C@H](CC(N)=O)NC(=O)[C@H](CCC(=O)O)NC(=O)[C@H](Cc1ccc(O)cc1)NC(=O)[C@H](CC(C)C)NC(=O)[C@@H]1CCC(=O)N1)C(=O)N[C@@H](CC(C)C)C(=O)O [NT62, [L-3,1-Nal^11]NT(1-13)] ([pGlu]LYENKPRRP[1Nal]IL-OH; C-terminus assumed) |  |
